Format in all cases: cell-based
In experiment [1] the target is T1, Human RAR-related Orphan Receptor Gamma (RORγ) (Homo sapiens, UniProt P51449).
T1 sequence (P51449 269-508 limits assumed): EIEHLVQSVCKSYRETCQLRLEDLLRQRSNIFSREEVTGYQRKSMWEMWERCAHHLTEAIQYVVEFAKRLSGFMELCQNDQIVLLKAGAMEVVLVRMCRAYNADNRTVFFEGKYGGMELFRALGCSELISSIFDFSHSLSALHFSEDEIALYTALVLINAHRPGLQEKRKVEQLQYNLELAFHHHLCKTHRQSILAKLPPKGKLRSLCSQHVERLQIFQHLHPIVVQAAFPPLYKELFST
Briefly: RORγ assay (GAL4-RORγ hybrid luciferase reporter, Indigo Biosciences). To be noted: inverse-agonist activity, GAL4-RORγ reporter cells, 23 hours. An outline of the steps:
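[…]engineered human reporter cell line expressing GAL4-DBD/RORγ-LBD hybrid with GAL4-UAS luciferase; constitutive activity measured as inverse agonism. Cells treated with compound (7.8-2000 nM) for 23 h at 37 °C; luminescence normalized to DMSO, IC50 by variable-slope fit, with parallel viability readout to flag non-specific inhibition.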

For the next experiment, the system named is IL-17A. Briefly: IL-17 release from differentiated primary human T-cells (IL-17A HTRF assay). To be noted: primary human CD4+ T cells differentiated into Th17 cells, 45-hour incubation, IL-17A in supernatant; read-out: hIL17 IC50. An outline of the steps: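 Primary human CD4+ T cells (~2×10^5/well) given compound (2–500 or 4–1000 nM, 0.1% DMSO), CD3/CD28-activated and Th17-differentiated (TGF-β, IL-6, IL-23, IL-1β) for 45 h at 37° C. Supernatant IL-17A by HTRF against standard curve, normalized to vehicle; IC50 by variable-slope regression, with parallel CyQuant viability.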

In experiment [2] the test system is Nrf2 transcription factor. Briefly: AREc32 luciferase reporter assay. Particulars: Homo sapiens; AREc32 cells, 19 hours; concentration required to increase GST ARE luciferase reporter activity by 2-fold; read-out: NRF2 ARE 2-Fold (EC2×). An outline of the steps:
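AREc32 cells (MCF-7 with firefly luciferase under eight rat GSTA2 ARE copies) treated 19 h with compound (0.4-200 nM or 3.9-2000 nM) in triplicate. Luminescence normalized to DMSO as fold-induction, capped at 50-fold. EC2× = concentration giving 2-fold reporter increase, interpolated from variable-slope fit.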

As for `C[C@H]1C(=O)C(C#N)=C[C@@]2(C)c3nc(-c4cccc(-c5ccnn5C)c4)n(-c4cccc(F)c4)c3CC[C@H]12` [T151], the IC50 in experiment [1] came to 234 nM; in the experiment on IL-17A it was 154 nM. Further, the EC (2-fold) in experiment [2] is 0.749 µM.
On to `C[C@H]1C(=O)C(C#N)=C[C@@]2(C)c3c(c(-c4cccnc4)nn3-c3ccc(-c4ccnc(CF)c4)cc3)CC[C@H]12` [T180], for which the IC50 in experiment [1] was 55 nM; in the experiment with IL-17A, 49 nM. The EC (2-fold) in experiment [2] worked out at 0.308 µM.
For the compound `C[C@H]1C(=O)C(C#N)=C[C@@]2(C)c3c(c(-c4ccccc4)nn3-c3cccc4ccccc34)CC[C@H]12` [T23], the half-maximal inhibitory concentration (IC50) in experiment [1] turned out to be 118 nM; with IL-17A, 89 nM. In experiment [2], the EC (2-fold) was 0.19 µM.
As to `C[C@H]1C(=O)C(C#N)=C[C@@]2(C)c3c(c(-c4ccccc4F)nn3-c3nc4ccccc4[nH]3)CC[C@H]12` [T91], the figures for the IC50 (in experiment [1]; with IL-17A) were more than 2000 nM and more than 500 nM, respectively. The EC (2-fold) in experiment [2] is more than 2 µM.
For `C[C@H]1C(=O)C(C#N)=C[C@@]2(C)c3c(c(-c4ccccc4)nn3-c3ccc(-c4ccccc4CO)cc3)CC[C@H]12` [T43], in that order: 53 nM, 43 nM and 0.174 µM.
On the same counts, the results for `C[C@H]1C(=O)C(C#N)=C[C@@]2(C)c3nc(-c4cccc(-c5ccccc5)c4)n(-c4cccnc4)c3CC[C@H]12` [T155] are 201 nM, 161 nM and 0.738 µM.
On to `Cc1noc(-c2nn(-c3ccc(-c4ccccc4)cc3)c3c2CC[C@@H]2[C@@H](C)C(=O)C(C#N)=C[C@@]32C)n1` [T96], for which the IC50 in experiment [1] was determined as 59 nM; in the experiment on IL-17A, 32 nM. In addition, the EC (2-fold) in experiment [2] was 0.258 µM.
Consider `C[C@H]1C(=O)C(C#N)=C[C@@]2(C)c3c(c(-c4ccncn4)nn3-c3ccc(-c4cccnc4)cc3F)CC[C@H]12` [T53], for which the IC50 in experiment [1] came to 57 nM; in the experiment with IL-17A it was 88 nM. Moreover, the EC (2-fold) in experiment [2] is 0.489 µM.
On the same counts, the results for `C[C@H]1C(=O)C(C#N)=C[C@@]2(C)c3c(c(-c4ccccc4)nn3-c3ccc(-c4ccncc4)cc3)CC[C@H]12` [T39] are 25 nM, 31 nM and 0.139 µM.
With `CC(C)c1ccc(-c2nc3c(n2-c2cccnc2)CC[C@@H]2[C@@H](C)C(=O)C(C#N)=C[C@@]32C)cc1` [T153], the 50% inhibitory concentration (IC50) was determined as 334 nM in experiment [1] and 108 nM in the experiment on IL-17A. Moreover, the EC (2-fold) in experiment [2] was 1.25 µM.
Turning to `C[C@H]1C(=O)C(C#N)=C[C@@]2(C)c3c(c(-c4ccncn4)nn3-c3nc4ccccc4s3)CC[C@H]12` [T98], the IC50 worked out at 289 nM in experiment [1] and 78 nM in the experiment with IL-17A. In addition, the EC (2-fold) in experiment [2] stood at 0.275 µM.
For the compound `C[C@H]1C(=O)C(C#N)=C[C@@]2(C)c3c(c(-c4ccccc4F)nn3-c3ccc(-c4ccncn4)cc3)CC[C@H]12` [T93], the IC50 worked out at 42 nM in experiment [1] and 37 nM in the experiment on IL-17A. In experiment [2], the EC (2-fold) is 0.139 µM.
As to `C[C@H]1C(=O)C(C#N)=C[C@@]2(C)c3nn(-c4ccc(-c5ccccc5)cc4)c(-c4ccccc4)c3CC[C@H]12` [T22], the IC50 turned out to be 175 nM in experiment [1] and 56 nM with IL-17A. Moreover, the EC (2-fold) in experiment [2] was 1.05 µM.
For `C[C@H]1C(=O)C(C#N)=C[C@@]2(C)c3c(c(C4CCCCC4)nn3-c3ccc(-c4ccccc4)cc3)CC[C@H]12` [T76], in that order: 73 nM, 30 nM and 0.465 µM.
For `C[C@H]1C(=O)C(C#N)=C[C@@]2(C)c3c(c(-c4ccccc4F)nn3-c3nc4ccccc4n3C)CC[C@H]12` [T90], in that order: 135 nM, 57 nM and 1.31 µM.
Regarding `C[C@H]1C(=O)C(C#N)=C[C@@]2(C)c3nc(-c4ccc(N(C)C)cc4)n(-c4cccc(F)c4)c3CC[C@H]12` [T132], the values for the IC50 (in experiment [1]; in the experiment with IL-17A) were 110 nM and 114 nM, respectively. The EC (2-fold) in experiment [2] is 1.02 µM.
Take `C[C@H]1C(=O)C(C#N)=C[C@@]2(C)c3nc(-c4cccc(Br)c4)n(-c4cccc(F)c4)c3CC[C@H]12` [T145]: the IC50 in experiment [1] was found to be 92 nM; in the experiment with IL-17A, 87 nM. In experiment [2], the EC (2-fold) amounted to 0.755 µM.
Take `C[C@H]1C(=O)C(C#N)=C[C@@]2(C)c3nc(-c4cccc(N5CCOCC5)c4)n(-c4cccc(F)c4)c3CC[C@H]12` [T143]: the results for the half-inhibitory concentration (IC50) (in experiment [1]; with IL-17A) were 95 nM and 132 nM, respectively. Besides, the EC (2-fold) in experiment [2] is 0.643 µM.
Regarding `C[C@H]1C(=O)C(C#N)=C[C@@]2(C)c3c(c(-c4ccncn4)nn3-c3ccc(-c4cccc(CF)c4)cn3)CC[C@H]12` [T61], the IC50 is 136 nM in experiment [1] and 115 nM in the experiment on IL-17A. The EC (2-fold) in experiment [2] was found to be 0.251 µM.
`C[C@H]1C(=O)C(C#N)=C[C@@]2(C)c3c(c(-c4ccccc4)nn3-c3ccccc3)CC[C@H]12` [T11]: the IC50 stood at 73 nM in experiment [1] and 111 nM in the experiment on IL-17A. Moreover, the EC (2-fold) in experiment [2] is 0.107 µM.
Turning to `C[C@H]1C(=O)C(C#N)=C[C@@]2(C)c3nc(-c4ccnc(C(F)(F)F)c4)n(-c4cccc(F)c4)c3CC[C@H]12` [T141], the IC50 was 146 nM in experiment [1] and 194 nM with IL-17A. In addition, the EC (2-fold) in experiment [2] came out at 0.892 µM.
For the compound `C[C@H]1C(=O)C(C#N)=C[C@@]2(C)c3nn(-c4ccc(-c5ccccc5)cc4)c(CC4CCC4)c3CC[C@H]12` [T119], the IC50 is 158 nM in experiment [1] and 43 nM in the experiment with IL-17A. Also, the EC (2-fold) in experiment [2] is 1.16 µM.
Consider `C[C@H]1C(=O)C(C#N)=C[C@@]2(C)c3c(c(-c4ccccc4)nn3C3CCCCC3)CC[C@H]12` [T2], for which the IC50 in experiment [1] is 98 nM; in the experiment with IL-17A it was 83 nM. In addition, in experiment [2], the EC (2-fold) came to 0.66 µM.
On to `CC(C)c1ccc(-c2nc3c(n2-c2cnn(C)c2)CC[C@@H]2[C@@H](C)C(=O)C(C#N)=C[C@@]32C)cc1` [T156], for which the IC50 in experiment [1] worked out at 117 nM; in the experiment on IL-17A, 128 nM. Besides, the EC (2-fold) in experiment [2] is 1.16 µM.
On the same counts, the results for `C[C@H]1C(=O)C(C#N)=C[C@@]2(C)c3c(c(N4CCOCC4)nn3-c3ccc(-c4ccccc4)cc3)CC[C@H]12` [T77] are 111 nM, 68 nM and 0.908 µM.
For the compound `C[C@H]1C(=O)C(C#N)=C[C@@]2(C)c3c(c(-c4ccccc4)nn3-c3ccc(-c4ccc(CO)cc4)cc3)CC[C@H]12` [T42], the results for the IC50 (in experiment [1]; with IL-17A) were 33 nM and 35 nM, respectively. In addition, the EC (2-fold) in experiment [2] was found to be 0.13 µM.
As to `CC(C)c1ccc(-c2nc3c(n2Cc2ccccc2F)CC[C@@H]2[C@@H](C)C(=O)C(C#N)=C[C@@]32C)cc1` [T168], the IC50 in experiment [1] was found to be 296 nM; with IL-17A, 43 nM. The EC (2-fold) in experiment [2] was 1.29 µM.
Regarding `C[C@H]1C(=O)C(C#N)=C[C@@]2(C)c3c(c(-c4cccnc4)nn3-c3ccc(-c4ccccc4)cc3)CC[C@H]12` [T68], the figures for the IC50 (in experiment [1]; with IL-17A) were 36 nM and 27 nM, respectively. For the same compound, in experiment [2], the EC (2-fold) was determined as 0.248 µM.
For `C[C@H]1C(=O)C(C#N)=C[C@@]2(C)c3nc(-c4cccc(-c5ccncc5)c4)n(-c4cnn(C)c4)c3CC[C@H]12` [T159], the figures for the IC50 (in experiment [1]; with IL-17A) were 201 nM and 273 nM, respectively. Also, the EC (2-fold) in experiment [2] turned out to be 1.08 µM.
Regarding `C[C@H]1C(=O)C(C#N)=C[C@@]2(C)c3c(c(-c4ccccc4F)nn3-c3ccc(-c4ccncc4)cc3)CC[C@H]12` [T84], the half-inhibitory concentration (IC50) is 23 nM in experiment [1] and 33 nM in the experiment on IL-17A. Moreover, the EC (2-fold) in experiment [2] came out at 0.121 µM.
As for `Cc1cc(-c2ccc(-n3nc(-c4nc(C)no4)c4c3[C@]3(C)C=C(C#N)C(=O)[C@H](C)[C@H]3CC4)cc2)cnn1` [T108], the IC50 in experiment [1] came out at 154 nM; with IL-17A it was 223 nM. In addition, the EC (2-fold) in experiment [2] turned out to be 1.25 µM.
On to `Cc1ccc(-n2nc(-c3ccccc3)c3c2[C@]2(C)C=C(C#N)C(=O)[C@H](C)[C@H]2CC3)cc1` [T12], for which the results for the IC50 (in experiment [1]; with IL-17A) were 55 nM and 76 nM, respectively. For the same compound, the EC (2-fold) in experiment [2] was determined as 0.135 µM.
On to `C[C@H]1C(=O)C(C#N)=C[C@@]2(C)c3c(c(-c4ccccc4)nn3-c3ccccc3F)CC[C@H]12` [T9], for which the IC50 is 63 nM in experiment [1] and 127 nM in the experiment with IL-17A. Besides, the EC (2-fold) in experiment [2] came to 0.122 µM.
As to `C[C@H]1C(=O)C(C#N)=C[C@@]2(C)c3c(c(-c4ccccc4)nn3-c3ccc(-c4ccccc4)cn3)CC[C@H]12` [T97], the IC50 stood at 107 nM in experiment [1] and 38 nM in the experiment on IL-17A. The EC (2-fold) in experiment [2] came out at 0.597 µM.
For the compound `C[C@H]1C(=O)C(C#N)=C[C@@]2(C)c3nn(-c4ccncc4)c(-c4ccc(F)cc4)c3CC[C@H]12` [T122], the IC50 in experiment [1] turned out to be 97 nM; in the experiment with IL-17A it was 246 nM. Besides, the EC (2-fold) in experiment [2] is 0.441 µM.

The values are drawn from patent publication US11993574B2, “Pyrazole and imidazole compounds for inhibition of IL-17 and RORgamma” (REATA PHARMACEUTICALS, INC., priority 2018, dated 2024).
